The values below are quoted from earlier work in patent publication US20240207235A1, “NANOEMULSION FORMULATION FOR TREATING DISBETES MELLITUS (DM)” (KING FAISAL UNIVERSITY, priority 2022, published 2024).

Regarding `CCc1ccc(CCOc2ccc(CC3SC(=O)NC3=O)cc2)nc1` (stereo not shown) [PGZ, Pioglitazone], the solubility entry is reported as “low solubility”.
